Earlier results on one substance are cited in patent US20260114463A1, “COATING LIQUID COMPOSITION, PRODUCTION METHOD THEREFOR, AND LIQUID CONTAINING LOW-TEMPERATURE DAMAGE INHIBITOR” (Mitsubishi Chemical Corporation, priority 2023, published 2026).

The conditions of this data set: raw material data.

Regarding Glycerin monocaprylate [Example M-100], the HLB was 7.0.
